What was measured:
Experiment in all cases: Bliss excess, mean over the matrix (fraction); higher = more synergy
[1] = tested on: MDA-MB-157 (Breast Carcinoma)
Procedure, shortened: (§1)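 Bliss excess equals the observed combination effect minus the expected value EA + EB − EA·EB, where EA and EB are the effects of each agent alone. Combination Emax is the second-highest inhibition within the matrix. Inhibition was scaled from CellTiter-Glo 2.0 luminescence, with 0 set by vehicle wells and 1 by blank wells, after 72 hours of two-drug dosing of cells plated in 1536-well plates.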

IGR-1 (Melanoma) = tested on: IGR-1 (Melanoma)
Procedure, shortened: as §1

[2] = tested on: C3A (Hepatocellular Carcinoma)
Procedure, shortened: as §1

[3] = tested on: G-292-Clone-A141B1 (Osteosarcoma)
Procedure, shortened: as §1

[4] = tested on: KM-H2 (Hodgkin's Lymphoma)
Procedure, shortened: as §1

[5] = tested on: JiyoyeP-2003 (Burkitt's Lymphoma)
Procedure, shortened: as §1

SN12C (Kidney Carcinoma) = tested on: SN12C (Kidney Carcinoma)
Procedure, shortened: as §1

[6] = tested on: MDA-MB-231 (Breast Carcinoma)
Procedure, shortened: as §1

CAL-78 (Chondrosarcoma) = tested on: CAL-78 (Chondrosarcoma)
Procedure, shortened: as §1

[7] = tested on: EM-2 (Chronic Myelogenous Leukemia)
Procedure, shortened: as §1

[8] = tested on: CFPAC-1 (Pancreatic Carcinoma)
Procedure, shortened: as §1

[9] = tested on: NCI-H1793 (Lung Adenocarcinoma)
Procedure, shortened: as §1

[10] = tested on: NALM-6 (B-Lymphoblastic Leukemia)
Procedure, shortened: as §1

[11] = tested on: HPAC (Pancreatic Carcinoma)
Procedure, shortened: as §1

[12] = tested on: 697 (B-Lymphoblastic Leukemia)
Procedure, shortened: as §1

[13] = tested on: MFH-ino (Other Solid Carcinomas)
Procedure, shortened: as §1

[14] = tested on: KARPAS-620 (Plasma Cell Myeloma)
Procedure, shortened: as §1

[15] = tested on: SNU-C5 (Colorectal Carcinoma)
Procedure, shortened: as §1

[16] = tested on: SW780 (Bladder Carcinoma)
Procedure, shortened: as §1

[17] = tested on: KATOIII (Gastric Carcinoma)
Procedure, shortened: as §1

SMILES: CC1(C)CCC(CN2CCN(c3ccc(C(=O)NS(=O)(=O)c4ccc(NCC5CCOCC5)c([N+](=O)[O-])c4)c(Oc4cnc5[nH]ccc5c4)c3)CC2)=C(c2ccc(Cl)cc2)C1 [Venetoclax] + COc1cc(Nc2ncc3c(n2)-c2ccc(Cl)cc2C(c2c(F)cccc2OC)=NC3)ccc1C(=O)O [Alisertib] (first compound max 1 µM, 7x7, partner max 10 µM)
- Bliss excess [1]: 0.014
- Bliss excess (IGR-1 (Melanoma)): 0.0759
- Bliss excess [2]: -0.0617
- Bliss excess [3]: -0.0793
- Bliss excess [4]: 0.145
- Bliss excess [5]: -0.0161
- Bliss excess (SN12C (Kidney Carcinoma)): -0.0985
- Bliss excess [6]: 0.0102
- Bliss excess (CAL-78 (Chondrosarcoma)): -0.0353
- Bliss excess [7]: 0.24
- Bliss excess [8]: -0.0475
- Bliss excess [9]: -0.0577
- Bliss excess [10]: 0.104
- Bliss excess [11]: -0.0517
- Bliss excess [12]: 0.0193
- Bliss excess [13]: -0.0729
- Bliss excess [14]: 0.284
- Bliss excess [15]: -0.0682
- Bliss excess [16]: -0.0455
- Bliss excess [17]: -0.0587

SMILES: CS(=O)(=O)CCNCc1ccc(-c2ccc3ncnc(Nc4ccc(OCc5cccc(F)c5)c(Cl)c4)c3c2)o1 [Lapatinib] + C[C@@H](Oc1cc(-c2cnn(C3CCNCC3)c2)cnc1N)c1c(Cl)ccc(F)c1Cl [Crizotinib] (first compound max 10 µM, 7x7, partner max 10 µM)
- Bliss excess [1]: -0.0086
- Bliss excess (IGR-1 (Melanoma)): -0.0282
- Bliss excess [2]: -0.0963
- Bliss excess [3]: -0.0506
- Bliss excess [4]: 0.0018
- Bliss excess [5]: -0.0186
- Bliss excess (SN12C (Kidney Carcinoma)): -0.017
- Bliss excess [6]: -0.042
- Bliss excess (CAL-78 (Chondrosarcoma)): -0.072
- Bliss excess [7]: -0.0062
- Bliss excess [8]: -0.077
- Bliss excess [9]: -0.0351
- Bliss excess [10]: -0.0612
- Bliss excess [11]: 0.0358
- Bliss excess [12]: 0.0166
- Bliss excess [13]: -0.0902
- Bliss excess [14]: -0.0459
- Bliss excess [15]: -0.0301
- Bliss excess [16]: -0.0364
- Bliss excess [17]: 0.0169

SMILES: C[C@@H](c1ccc2nccn2c1)n1nnc2ncc(-c3cnn(C)c3)nc21 [Savolitinib] + CN(CC[C@H](CSC1=CC=CC=C1)NC2=C(C=C(C=C2)S(=O)(=O)NC(=O)C3=CC=C(C=C3)N4CCC(CC4)[C@H](C5=CC=CC=C5C6=CC=C(C=C6)Cl)O)S(=O)(=O)C(F)(F)F)CCO [AZD4320] (first compound max 1 µM, 7x7, partner max 1 µM)
- Bliss excess (IGR-1 (Melanoma)): -0.0913
- Bliss excess [2]: -0.0604
- Bliss excess [4]: -0.0267
- Bliss excess [5]: -0.0082
- Bliss excess (CAL-78 (Chondrosarcoma)): -0.0906
- Bliss excess [7]: -0.0531
- Bliss excess [8]: -0.0545
- Bliss excess [9]: -0.0329
- Bliss excess [11]: -0.0347
- Bliss excess [12]: -0.0412
- Bliss excess [15]: -0.0448
- Bliss excess [16]: -0.0468

SMILES: C=CCn1c(=O)c2cnc(Nc3ccc(N4CCN(C)CC4)cc3)nc2n1-c1cccc(C(C)(C)O)n1 [AZD1775] + C1CN(CCC1(C(=O)N[C@@H](CCO)C2=CC=C(C=C2)Cl)N)C3=NC=NC4=C3C=CN4 [Capivasertib] (first compound max 3 µM, partner max 3 µM)
- Bliss excess [1]: -0.0818
- Bliss excess (IGR-1 (Melanoma)): 0.011
- Bliss excess [2]: -0.0262
- Bliss excess [3]: -0.0313
- Bliss excess [4]: 0.0333
- Bliss excess [5]: -0.0726
- Bliss excess (SN12C (Kidney Carcinoma)): -0.0516
- Bliss excess [6]: -0.0181
- Bliss excess (CAL-78 (Chondrosarcoma)): -0.0614
- Bliss excess [7]: -0.0724
- Bliss excess [8]: 0.0135
- Bliss excess [9]: 0.0373
- Bliss excess [10]: -0.0371
- Bliss excess [11]: -0.0611
- Bliss excess [12]: 0.0337
- Bliss excess [13]: -0.0204
- Bliss excess [15]: -0.034
- Bliss excess [16]: 0.0017
- Bliss excess [17]: -0.0773
